Test results from patent publication US12172968B1, “4-[4,4-bis(4-chlorophenyl)-2,5-dioxoimidazolidin-1-yl]butanoic acid as an antimicrobial compound” (KING FAISAL UNIVERSITY, priority 2024, dated 2024).

Legend:
Type in all cases: cell-based
Details in all cases: after 10, 20, 40 and 60 minutes at all dilutions 1:100, 1:200, 1:400, 1:800
Staphylococcus aereus = test: Antimicrobial testing by agar dilution, St. Aereus
Protocol: (§1) The antimicrobial properties of the 4-[4,4-bis(4-chlorophenyl)-2,5-dioxoimidazolidin-1-yl]butanoic acid were studied by the method of agar dilution. Test solutions of each compound was prepared in concentration of 1% using dimethylformamide as a solvent then they are diluted in physiological solution to obtain the final experimental dilutions 1:100, 1:200, 1:400, 1:800. The effect of these substances are compared with furacillin in a controllable study. The testing microbes used were gram positive bacteria Staphylococcus aereus, gram negative bacteria Escherichia Coli, Pseudomonas aeruginosa and Candida albicans fungi were taken. The experiments used for this survey were meat-pentonlu agar (EPA) for cultivation of bacteria and Saburo environment for fungi. Each experiment used iml of test solution on each plate 500 min. Add 2 drops of emulsified with microbes feel. All experimental samples were taken from the agar after 10, 20, 40, 60 minutes in the environment on the basis of Patrk planted. Bacteria were cultivated at a temperature of 37° C. for 1 day and the mushroom was kept in a thermostat for […] at a temperature of 28° C. in the. Then results were checked.

Escherichia Coli = test: Antimicrobial testing by agar dilution, E. Coli
Protocol: as §1

Pseudomonas aeruginosa = test: Antimicrobial testing by agar dilution, Ps. aeruginosa
Protocol: as §1

Candida albicans = test: Antimicrobial testing by agar dilution, Candida albicans
Protocol: as §1

Measured: inhibition activity (summary in words)

O=C(O)CCCN1C(=O)NC(c2ccc(Cl)cc2)(c2ccc(Cl)cc2)C1=O [4-[4,4-bis(4-chlorophenyl)-2,5-dioxoimidazolidin-1-yl]butanoic acid]
higher inhibition activity: all assays above
